Test results taken from the supplement of paper PMC9663587.

How the values were obtained:
Assay in all cases: GR value, 72 h; higher = faster growth (1 = untreated, <0 = killing);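 note: breast cancer and non-malignant breast epithelial lines, nine half-log doses, viable cells counted by Hoechst and LIVE/DEAD dye imaging versus time-zero plates and DMSO controls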
[1] = compound: CCN1CCN(Cc2ccc(Nc3ncc(F)c(-c4cc(F)c5nc(C)n(C(C)C)c5c4)n3)nc2)CC1
Neratinib/HKI272 = compound: CCOc1cc2ncc(C#N)c(Nc3ccc(OCc4ccccn4)c(Cl)c3)c2cc1NC(=O)/C=C/CN(C)C [Neratinib/HKI272]
[2] = compound: CCc1cnn2c(NCc3ccc[n+]([O-])c3)cc(N3CCCC[C@H]3CCO)nc12
LEE011/Ribociclib = compound: CN(C)C(=O)c1cc2cnc(Nc3ccc(N4CCNCC4)cn3)nc2n1C1CCCC1 [LEE011/Ribociclib]
THZ1 = compound: CN(C)C/C=C/C(=O)Nc1ccc(C(=O)Nc2cccc(Nc3ncc(Cl)c(-c4c[nH]c5ccccc45)n3)c2)cc1 [THZ1]
Flavopiridol = compound: CN1CC[C@H](c2c(O)cc(O)c3c(=O)cc(-c4ccccc4Cl)oc23)[C@H](O)C1 [Flavopiridol]

## AU565
[1]; 0.001 µM
  GR value: 0.876 GR
[1]; 0.003162 µM
  GR value: 0.791 GR
[1]; 0.01 µM
  GR value: 0.605 GR
[1]; 0.03162 µM
  GR value: 0.382 GR
[1]; 0.1 µM
  GR value: 0.268 GR
[1]; 0.3162 µM
  GR value: 0.223 GR
[1]; 1 µM
  GR value: 0.114 GR
[1]; 3.162 µM
  GR value: 0.0465 GR
[1]; 10 µM
  GR value: -0.328 GR
Neratinib/HKI272; 0.0003162 µM
  GR value: 0.834 GR
Neratinib/HKI272; 0.001 µM
  GR value: 0.534 GR
Neratinib/HKI272; 0.003162 µM
  GR value: 0.172 GR
Neratinib/HKI272; 0.01 µM
  GR value: -0.145 GR
Neratinib/HKI272; 0.03162 µM
  GR value: -0.318 GR
Neratinib/HKI272; 0.1 µM
  GR value: -0.388 GR
Neratinib/HKI272; 0.3162 µM
  GR value: -0.506 GR
Neratinib/HKI272; 1 µM
  GR value: -0.585 GR
Neratinib/HKI272; 3.162 µM
  GR value: -0.614 GR
[2]; 0.0001 µM
  GR value: 0.954 GR
[2]; 0.0003162 µM
  GR value: 0.978 GR
[2]; 0.001 µM
  GR value: 0.974 GR
[2]; 0.003162 µM
  GR value: 0.928 GR
[2]; 0.01 µM
  GR value: 0.19 GR
[2]; 0.03162 µM
  GR value: -0.568 GR
[2]; 0.1 µM
  GR value: -0.734 GR
[2]; 0.3162 µM
  GR value: -0.746 GR
[2]; 1 µM
  GR value: -0.767 GR
LEE011/Ribociclib; 0.001 µM
  GR value: 0.82 GR
LEE011/Ribociclib; 0.003162 µM
  GR value: 0.739 GR
LEE011/Ribociclib; 0.01 µM
  GR value: 0.645 GR
LEE011/Ribociclib; 0.03162 µM
  GR value: 0.742 GR
LEE011/Ribociclib; 0.1 µM
  GR value: 0.569 GR
LEE011/Ribociclib; 0.3162 µM
  GR value: 0.546 GR
LEE011/Ribociclib; 1 µM
  GR value: 0.487 GR
LEE011/Ribociclib; 3.162 µM
  GR value: 0.425 GR
LEE011/Ribociclib; 10 µM
  GR value: 0.227 GR
THZ1; 0.0001 µM
  GR value: 0.903 GR
THZ1; 0.0003162 µM
  GR value: 1.02 GR
THZ1; 0.001 µM
  GR value: 0.972 GR
THZ1; 0.003162 µM
  GR value: 0.84 GR
THZ1; 0.01 µM
  GR value: 0.797 GR
THZ1; 0.03162 µM
  GR value: 0.225 GR
THZ1; 0.1 µM
  GR value: -0.325 GR
THZ1; 0.3162 µM
  GR value: -0.547 GR
THZ1; 1 µM
  GR value: -0.653 GR
Flavopiridol; 0.0001 µM
  GR value: 1.11 GR
Flavopiridol; 0.0003162 µM
  GR value: 1.02 GR
Flavopiridol; 0.001 µM
  GR value: 0.906 GR
Flavopiridol; 0.003162 µM
  GR value: 0.852 GR
Flavopiridol; 0.01 µM
  GR value: 1 GR
Flavopiridol; 0.03162 µM
  GR value: 0.858 GR
Flavopiridol; 0.1 µM
  GR value: 0.472 GR
Flavopiridol; 0.3162 µM
  GR value: -0.198 GR
Flavopiridol; 1 µM
  GR value: -0.69 GR
